Source: patent US20080255153A1, “New compounds” (BIOVITRUM AB (publ), priority 2007, published 2008)

The molecules below were run against T1, stearoyl-CoA desaturase (SCD) (Rattus norvegicus, UniProt P07308) (assay: Tritium release screening assay for inhibition of stearoyl-CoA desaturase activity in rat liver microsomes (96- or 384-well)). Settings: [3H]-stearoyl-CoA, 20 min pre-incubation, 20 min reaction.
T1 construct: 0.032 mg/ml rat liver microsomes (total protein content); from tissue
T1 sequence (P07308 1-358): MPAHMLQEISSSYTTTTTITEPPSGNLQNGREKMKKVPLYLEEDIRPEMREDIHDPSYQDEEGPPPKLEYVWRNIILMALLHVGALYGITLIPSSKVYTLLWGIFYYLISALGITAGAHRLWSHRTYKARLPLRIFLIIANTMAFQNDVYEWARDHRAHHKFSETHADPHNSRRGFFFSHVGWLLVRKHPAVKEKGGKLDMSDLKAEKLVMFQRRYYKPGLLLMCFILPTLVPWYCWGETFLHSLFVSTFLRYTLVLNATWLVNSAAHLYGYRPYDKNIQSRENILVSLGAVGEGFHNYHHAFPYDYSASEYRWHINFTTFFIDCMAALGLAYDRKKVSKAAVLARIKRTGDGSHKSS
Type: biochemical
Excerpt: The tritium release assay for the measurement of SCD activity is thus well documented in the literature. Descriptions on how these finding have been used to produce standard screening assays in 96-well plates are also available [Brownlie, Hayden, Attie, Ntambi, Gray-Keller, & Miyazaki (2001) WO 01/62954; Wu, Gallipoli, Gallagher, & Gardell (2004) WO 2004/04776]. We have adopted the tritium release assay to a 384-well format to improve throughput even further.
Microsomal preparations were prepared from the livers of Male Sprague-Dawley rats that had been fasted and then refed a low fat/high carbohydrate diet. The preparation of microsomes was adopted from Seifried and Gaylor [Seifried & Gaylor (1976) J. Biol. Chem. 251, 7468-7473]. Confirmation of compound activity on human material was made based on microsomal preparations from HepG2 cells. All other reagents were purchased from commercial sources. The assay was run in 96 or 384-well microtiter plates by consecutive additions of a test compound solution, a microsomal preparation solution and a substrate containing solution. The final concentrations of all reagents in a total assay volume of 40 μl per well (in the 384-well plate format) were: • 0.11 μM [^3H]-stearoyl-CoA • 50 nM stearoyl-CoA • 0.032 mg/ml rat liver microsomes (total protein content) • 2 mM NADH • 220 mM sucrose • 44 mM NaH2PO4 pH adjusted to 6.8 • 130 mM KCl • 1.3 mM GSH • 0.05 mM CoA • 0.1% BSA • 0.29 mM nicotine amide • 15 mM NaF • 1.1 mM ATP • 4.9 mM MgCl2 • 0.002% Tween-20 • A test compound at various concentrations (which also adds 0.5-2% DMSO to the final solution)
The test compounds were pre-incubated for 20 minutes with the microsomal preparation prior to starting the reaction by the addition of substrate. The enzymatic reaction was allowed to proceed for 20 minutes and then optionally slowed by an addition of 40 μl of a 2% DMSO solution in water containing a known inhibitor of SCD activity. The solutions were mixed and then 70 μl of the total 80 μl were transferred to a filter plate containing predispensed activated charcoal. The plate was then centrifuged and the filtrate collected in a collector plate to which 40 μl of Optiphase Supermix was added per well. Following an 18 h equilibration time at room temperature the plate was read in a Trilux MicroBeta (two minutes counting time per well). […] The inhibitory potency or IC50 values of test compounds on SCD activity were defined by applying the same assay in the presence of sub-nM to sub-mM compound concentrations.

IC50 [nM] | Structure (SMILES)
27 | O=CNCCNC(=O)c1cnn2cc(Cc3ccc(Br)cc3)cnc12 [Example 25, 6-(4-Bromobenzyl)-N-[2-(formylamino)ethyl]pyrazolo[1,5-α]pyrimidine-3-carboxamide]
140 | Cc1nc2c(C(=O)NCCOCCO)cnn2cc1Cc1ccc(F)c(OC(F)(F)F)c1 [Example 38, 6-[4-Fluoro-3-(trifluoromethoxy)benzyl]-N-[2-(2-hydroxyethoxy)ethyl]-5-methyl-pyrazolo[1,5-α]pyrimidine-3-carboxamide]
610 | Cc1c(Cc2ccccc2)cnc2c(C(=O)NCCOCCO)cnn12 [Example 39, 6-Benzyl-N-[2-(2-hydroxyethoxy)ethyl]-7-methylpyrazolo[1,5-α]pyrimidine-3-carboxamide]
91 | NC(=O)COC(=O)c1cnn2cc(Cc3ccc(F)c(C(F)(F)F)c3)cnc12 [Example 48, 2-Amino-2-oxoethyl 6-[4-fluoro-3-(trifluoromethyl)benzyl]pyrazolo[1,5-α]pyrimidine-3-carboxylate]
480 | NC(=O)CNC(=O)c1cnn2cc(Sc3cccc(C(F)(F)F)c3)cnc12 [Example 50, N-(2-Amino-2-oxoethyl)-6-{[3-(trifluoromethyl)phenyl]thio}pyrazolo[1,5-α]-pyrimidine-3-carboxamide]
22 | NC(=O)CNC(=O)c1cnn2cc(Cc3cccc(Cl)c3Cl)cnc12 [Example 56, N-(2-Amino-2-oxoethyl)-6-(2,3-dichlorobenzyl)pyrazolo[1,5-α]pyrimidine-3-carboxamide]
